Data set [1] is described as follows: Fluorescence spectra of Cy5.5-labeled peptides. To be noted: 10 μM in PBS, excitation λex = 671 nm. Type of data set: physicochemical. The text has this: We synthesized the 12 amino acid sequence SRRPASFRTARE (black) and attached the fluorophore Cy5.5 (red) via a GGGSK linker (blue) on the C-terminus, hereafter SRR^*-Cy5.5, Figure 1A. Cy5.5 was chosen for photostability and high quantum yield in the near-infrared (NIR) spectrum. We used a linker to prevent steric hindrance of the peptide by the dye. We then used a structural model (1EV2), [24] […] This domain is the same in either isoform FGFR2IIIb or FGFR2IIIc. We also used this model to develop a scrambled sequence SPSRERTFRARA for a control, Figure 1C. This peptide was also labeled with Cy5.5 via a GGGSK linker, hereafter SPS^*-Cy5.5. For SPS^*-Cy5.5, we calculated Et = −277.37. […] We purified SRR^*-Cy5.5 and […] to >97% on HPLC, and measured an experimental mass-to-charge (m/z) ratio on mass spectrometry of 2385.31 for both peptides that agreed with the expected value, Supplementary Figure 3.
Figure 1 Peptide specific for FGFR2 Chemical structure is shown for 12 amino acid (aa) peptide sequence (A) SRRPASFRTARE (SRR^*) found to be specific for FGFR2, and (B) scrambled peptide SPSRERTFRARA (SPS^*) used for control. A Cy5.5 fluorophore (red) is attached via a GGGSK linker (blue) to prevent steric hindrance.

The subject of data set [2] is QhTERT cells that express FGFR2b. The data set can be described thus: Confocal fluorescence microscopy, binding to QhTERT cells that express FGFR2b. In kind it is cell-based, human. The text has this:
(§1) All human esophageal specimens were obtained with written, informed patient consent per approval and guidelines of the University of Michigan Institutional Review Board (IRB). Human non-dysplastic Barrett's esophagus (BE) cells immortalized with hTert (QhTERT) were obtained from the American Type Culture Collection (ATCC) and cultured in keratinocyte-serum free medium containing bovine pituitary extract and human recombinant EGF (ThermoFisher #17005042). QhTERT cells with stable expression of FGFR2b or FGFR2c were provided (DGB). We cultured these cells with keratinocyte-serum free medium containing bovine pituitary extract and human recombinant EGF (ThermoFisher #17005042) and added 1 μg/mL of puromycin-dihydrochloride (Invitrogen #A11138-03). All cells were cultured at 37°C in 5% CO2, and were passaged using 0.25% EDTA containing trypsin (Mediatech Inc). A hemocytometer was used to determine cell number. Peptide synthesis reagents were obtained from either Anaspec or AAPPTEC with the highest grade available (>99% purity) and used without further purification. Solvents and other chemical reagents were obtained from Sigma-Aldrich, unless otherwise stated.
(§2) ~10^3 QhTERT/wt, QhTERT/FGFR2b, and QhTERT/FGFR2c cells were grown on cover glass to ~80% confluence. The cells were washed with PBS 1X and incubated with 1 μM of either peptide for 10 min at RT. The cells were then washed 3X in PBS, fixed with 4% paraformaldehyde (PFA) for 5 min, washed 1X with PBS, and then mounted on glass slides with ProLong Gold reagent containing DAPI (Invitrogen). Confocal fluorescence images were collected with Cy5.5 and DAPI filters (Leica Inverted SP5X 2-Photon FLIM confocal microscopes) using a 63X oil-immersion objective. Fluorescence intensities from 3 cells in each of 3 independent images were quantified using custom Matlab (Mathworks) software.

Data set [3] deals with QhTERT cells that express FGFR2c. Description: Confocal fluorescence microscopy, binding to QhTERT cells that express FGFR2c. In kind it is cell-based, human.
Excerpt: as §1, §2

A further data set deals with QhTERT wild-type cells. The data set can be described thus: Confocal fluorescence microscopy, binding to wild-type QhTERT cells. In kind it is cell-based, human. To be noted: 1 μM peptide, 10 min at RT, 63X.
Excerpt: as §1, with “Peptide synthesis reagents were obtained from either Anaspec or AAPPTEC with the highest grade available (>99% purity) and used without further purification. Solvents and other chemical reagents were obtained from Sigma-Aldrich, unless otherwise stated.” left out
~10^3 QhTERT/wt, QhTERT/FGFR2b, and QhTERT/FGFR2c cells were grown on cover glass to ~80% confluence. […] Confocal fluorescence images were collected with Cy5.5 and DAPI filters (Leica Inverted SP5X 2-Photon FLIM confocal microscopes) using a 63X oil-immersion objective. Fluorescence intensities from 3 cells in each of 3 independent images were quantified using custom Matlab (Mathworks) software.

The subject of data set [4] is QhTERT cells that express FGFR2c. The data set can be described thus: Apparent dissociation constant by flow cytometry. The conditions noted are these: 0 to 200 nM in PBS in 25 nM increments, 4°C, 1 hour; mean fluorescence intensity by flow cytometry; non-linear fit R^2 = 0.96; representative of 3 independent experiments. In kind it is binding, human. How it is done:
We measured the apparent dissociation constant kd for peptide binding to cells to assess binding affinity. The Cy5.5-labeled peptide was serially diluted in PBS at concentrations ranging from 0 to 200 nM in 25 nM increments. QhTERT/FGFR2c cells (~10^5) were incubated with peptide at 4°C for 1 hour, washed with cold PBS, and the mean fluorescence intensities were measured using flow cytometry. The equilibrium dissociation constant kd=1/ka was calculated by performing a least squares fit of the data to the non-linear equation I=(I0+Imaxka[X])/([…]). I0 and Imax are the initial and maximum fluorescence intensities, corresponding to no peptide and at saturation, respectively, and [X] represents the concentration of the […] peptide. Prism 5.0 software (GraphPad Inc) was used to calculate kd.
A general note: In flow cytometry, cells or beads pass a laser one at a time.

The test system is the same in data set [5]. The data set can be described thus: Apparent association time constant by flow cytometry. Type of data set: binding, human. To be noted: 5 μM, RT, 0 to 30 min. As for the experimental part: We measured the apparent association time constant of the peptide to QhTERT/FGFR2c cells to assess binding onset. Cells were grown to ~80% confluence in 10 cm dishes, and detached with PBS-based cell dissociation buffer (Invitrogen). Cells (~10^5 were incubated with 5 μM SRR-Cy5.5 at RT for various time intervals ranging from 0 to 30 min. The cells were centrifuged, and washed with cold PBS. Flow cytometry analysis was performed as described above, and the median fluorescence intensity (y) were measured on flow cytometry at different time points (t) using Flowjo software. The rate constant k was calculated by fitting the data to a first order kinetics model, y(t) = Imax[1-exp^(-kt)], where Imax = maximum value using Prism 5.0 software (GraphPad Inc).

The subject of data set [6] is sections of human esophageal squamous cell cancer (SCC). Description: Confocal microscopy of staining of human esophageal squamous cell cancer (SCC) ex vivo. The text has this:
We observed good co-localization of peptide and antibody binding on merged images, Supplementary Figure 5C. Representative histology (H&E) for SCC is shown, Supplementary Figure 5D. […] Representative histology (H&E) for normal stomach is shown, Supplementary Figure 5H.

In data set [7] the test system is sections of human gastric cancer. Description: Confocal microscopy of staining of human gastric cancer ex vivo. The text has this: We observed good co-localization of peptide and antibody binding on merged images, Supplementary Figure 6C. Representative histology (H&E) for gastric cancer is shown, Supplementary Figure 6D. […] Representative histology (H&E) for normal stomach is shown, Supplementary Figure 6H.

Where [8] appears, read: 1 μM peptide, 10 min at RT, confocal, 63X.
The mark [9] stands for this setting: compared with wild-type, log-transformed, ANOVA, 3 random cells on each of 3 slides.

For the sequence SRRPASFRTARE [SRR^*-Cy5.5], in data set [1], the “peak emission λem” value came out at 710 nm. In addition, the “cell surface fluorescence signal / binding” value was “strong signal” in data set [2] (setting [8]), “strong signal” in data set [3] (setting [8]) and “minimal signal” with QhTERT wild-type cells. Moreover, the “mean fluorescence intensity versus control SPS^*-Cy5.5” value in data set [2] (setting [9]) and in data set [3] (setting [9]) was “significantly greater mean fluorescence intensity” each time. For the same sequence, the Kd in data set [4] is 68 nM. Further, the “apparent association time constant k” value in data set [5] (median fluorescence intensity by flow cytometry, first order kinetics, representative of 3 independent experiments) was determined as 0.16 min⁻¹. Further, the “time scale for onset of binding” value in data set [5] (from k) is given as ~ 6.2 min. For the same sequence, the “mean fluorescence intensity, SCC versus normal, SRR*-Cy5.5” value in data set [6] (P=5×10-21, paired two-sided t-test, 3 boxes of 30×30 μm2) was “significantly greater mean fluorescence intensity”. In data set [6] (SCC sections ex vivo, n = 35 patients), the “fluorescence intensity / binding, esophageal SCC” value was “strong fluorescence intensity”. In data set [6] (normal esophagus, comparison), the “staining, normal human esophagus” value was “minimal staining”. Besides, the “mean fluorescence intensity, gastric cancer versus normal, SRR*-Cy5.5” value in data set [7] (P=7×10-17, paired two-sided t-test, 3 boxes of 30×30 μm2) is “significantly greater mean fluorescence intensity”. Besides, the “fluorescence intensity / binding, gastric cancer” value in data set [7] (gastric cancer sections ex vivo, n = 33 patients) is on record as “strong fluorescence intensity”. Further, the “staining, normal human stomach” value in data set [7] (normal stomach, comparison) was “minimal staining”.

Values taken from article PMC5675618, “Identification and validation of FGFR2 peptide for detection of early Barrett's neoplasia” (Oncotarget, 2017).
